Reference: publication PMC12888920, “MMP-9 regulates disulphide isomerase activity of TGM2 to enhance fusion glycoprotein-mediated syncytium formation of respiratory syncytial virus” (Protein & Cell, 2025)

Test system: RSV A2
Experiment: Suppression of RSV progeny viral titer (FFA, 72 hpi) in HEp-2 cells
Format: cell-based, Respiratory syncytial virus
Settings: 0.2 and 1 MOI
Protocol: Figure 2. MMP-9 regulates late-stage RSV infection. (A) Time-of-addition assay design (left). HEp-2 cells were treated with metalloproteinase inhibitors under three regimens: “Full-time” (2 h pretreatment + continuous exposure), “Entry” (viral attachment phase only), or “Post-entry” (≥ 2 hpi). Cells infected with RSV A2 (MOI = 1) were analyzed for cytopathic effect inhibition at 72 hpi versus DMSO controls. mean ± SD, n = 3. (B) No inhibition of RSV F/G/SH pseudovirus entry by doxycycline hyclate or JNJ0966 (5 µmol/L). mean ± SD, n = 3. (C) Temporal sensitivity analysis (left). Viral RNA levels (22 hpi) in HEp-2 cells treated with 5 µmol/L inhibitors at defined intervals: pre-infection (−2–0 h), entry (0–2 h), or post-entry (2–16 h) phases (right). mean ± SD, n = 3. (D) Multicycle replication kinetics. […] (F) Dose-dependent suppression of RSV progeny (MOI = 0.2/1) by inhibitors (72 hpi), quantified by FFA. mean ± SD, n = 3. […]
To evaluate the effects of the compounds on RSV assembly and release, we treated HEp-2 cells with the inhibitors at 10 hpi (the onset of virion assembly) or 16 hpi (the onset of virion release) following RSV infection ([Malhi et al., 2021]). Supernatants were collected at 22 hpi for viral titer quantification. […] Furthermore, at 72 hpi, viral titers were quantified following infection with varying doses of RSV (0.2 and 1 MOI).

COc1ccccc1Nc1nc(-c2sc(NC(C)=O)nc2C)cs1 [JNJ0966]
inhibition of RSV replication (viral titers): dose-dependent inhibition

Doxycycline hyclate
inhibition of RSV replication (viral titers): dose-dependent inhibition
